From PubChem BioAssay AID720589 (Broad Institute, 2013)

These molecules were tested on HepG2 viability, ATP luminescence (CellTiter-Glo), 72 h (assay: ATP-based viability loss in HepG2 cells – cell-based, CellTiter-Glo luminescence, cherry-pick, set 3, cytotoxicity control, dose response (AID 720589)).
In the case of `O=C(Nc1cccc(S(=O)(=O)N2CCCC2)c1)c1ccc(Cl)nc1`, the AC35 is reported as 16 µM. `O=C(Nc1ccc(F)cc1)N1CCCCN2[C@@H](CO)[C@H](c3ccc(C4=CCCCC4)cc3)[C@@H]2C1` was tested, and the AC35 was 8.45 µM. `C=C1C(=O)C=C[C@]2(C)C[C@@H]3OC(=O)[C@](C)(O)[C@H]3C[C@@H]12` showed an AC35 of 11.8 µM. `C[C@@H]1CN([C@H](C)CO)C(=O)c2cc(C#CCN(C)C)cnc2O[C@H]1CN(C)Cc1ccc(-c2ccccc2)cc1` gave an AC35 of 2.79 µM. Work on `O=C1c2ccccc2C(=O)c2cc(N3CCCCC3)ccc21` yielded an AC35 of 12.5 µM. Work on `CN(C)c1ccc(/C=N/Nc2nc3ccccc3o2)cc1` yielded an AC35 of 18.2 µM. `CC(=O)OC1CC(OC2C(O)CC(OC3C(O)CC(OC4CCC5(C)C(CCC6C5CCC5(C)C(C7=CC(=O)OC7)CCC65O)C4)OC3C)OC2C)OC(C)C1OC1OC(CO)C(O)C(O)C1O` (stereo not drawn) showed an AC35 of 0.0996 µM. For `COC(=O)C[C@@H]1CC[C@@H]2[C@@H](COc3ccc(NC(=O)Nc4ccc(C#N)cc4)cc3C(=O)N2C)O1`, the AC35 was 14.4 µM. `O=C(Nc1ccc2c(c1)OCO2)N1C[C@@H]2N[C@H](C1)C2c1ccc(C=Cc2ccccc2)cc1` (stereo partly drawn) showed an AC35 of 5.42 µM. `OCC1OC(n2ccc3c2ncn2ncnc32)C(O)C1O` (stereo not drawn) showed an AC35 of 0.339 µM. `Nc1nc(N)c(-c2cccc(C(F)(F)F)c2)c(Cc2cccc(C(F)(F)F)c2)n1` gave an AC35 of 4.53 µM. `Cc1nc(N)nc(N)c1-c1ccc(Cl)c(Cl)c1` gave an AC35 of 0.557 µM. `CN1C/C(=C/c2ccsc2)C(=O)/C(=C/c2ccsc2)C1` gave an AC35 of 13.7 µM. `O=C(NC[C@@H]1N[C@@H](CO)[C@H]1c1ccc(C2=CCCCC2)cc1)c1cccc(F)c1` gave an AC35 of 7.71 µM. For `CN(C)c1ccc(N=Nc2nc3ccccc3n2C)cc1`, the AC35 was 12 µM. With `BrC(=C\c1ccccc1)/C=N/n1cnnc1` the AC35 was 16.6 µM. With `O=C(NC1CCCC1)N1CCCCN2[C@@H](CO)[C@@H](c3ccc(/C=C/c4ccccc4)cc3)[C@@H]2C1` the AC35 was 9.99 µM. Molecule `COc1ccc(S(=O)(=O)Nc2cccc3c2O[C@H](CN(C)Cc2ccc(C(=O)Nc4ccccc4N)cc2)[C@H](C)CN([C@@H](C)CO)C3=O)cc1` has an AC35 of 4.44 µM. Molecule `O=C(CCc1ccccc1)NC(c1cccs1)c1cc(Cl)c2cccnc2c1O` (stereo not drawn) has an AC35 of 7.07 µM. `Cc1cc(-c2nc3ccccc3s2)ccc1N` was tested, and the AC35 was 0.0502 µM. `O=C(N/N=C/c1cnc(N2CCCCC2)s1)c1ccc(C(F)(F)F)cc1` showed an AC35 of 14.1 µM. Molecule `COc1ccc(C(CCNCc2ccc(OC(C)C)cc2)C(C)C)cc1` (stereo not drawn) has an AC35 of 9.44 µM. Molecule `O=c1ccc2[n+]([O-])c3ccc(O)cc3oc-2c1` has an AC35 of 5.65 µM. In the case of `C(=NNc1ccc2ccccc2n1)c1ccccn1`, the AC35 is reported as 1.64 µM. Molecule `C[C@H]1CN([C@@H](C)CO)C(=O)c2cccc(NC(=O)c3ccc(-c4nccs4)cc3)c2O[C@@H]1CN(C)Cc1ccc(C(=O)Nc2ccccc2N)cc1` has an AC35 of 4.1 µM. `COc1ccc(NC(=O)N2CCCCN3[C@@H](CO)[C@H](c4ccc(C5=CCCCC5)cc4)[C@@H]3C2)cc1` was tested, and the AC35 was 10.9 µM. `CN(C)c1ccc(C=c2c3ccccc3n3c2c2c([n+]3C)CCCC2)cc1` gave an AC35 of 2.14 µM. For `Cc1nc(N)nc(N)c1CCCc1ccc(Cl)c(Cl)c1`, the AC35 was 0.761 µM. Molecule `C/C(=C\c1ccccc1)C(=O)N1CCC=CC1=O` has an AC35 of 4.88 µM. Molecule `C[C@H]1CN([C@@H](C)CO)C(=O)c2cc(NC(=O)C3CCCCC3)ccc2O[C@H]1CN(C)Cc1ccc(C(=O)Nc2ccccc2N)cc1` has an AC35 of 1.47 µM. Molecule `C[C@H]1CN([C@@H](C)CO)C(=O)c2cc(N(C)C)ccc2O[C@H]1CN(C)Cc1ccc(C(=O)Nc2ccccc2N)cc1` has an AC35 of 0.298 µM. For `OC[C@H]1O[C@@H](n2cnc3c(NCc4ccco4)ncnc32)[C@H](O)[C@@H]1O`, the AC35 was 12.1 µM. For `CN=c1scc(-c2cccs2)n1/N=C/c1ccccc1O`, the AC35 was 20.8 µM. `C[C@@H]1CN([C@H](C)CO)C(=O)c2cccc(N(C)C)c2O[C@@H]1CN(C)Cc1ccc(C(=O)Nc2ccccc2N)cc1` showed an AC35 of 3.05 µM. In the case of `COc1ccc(CC(N)c2csc(NC(=O)Nc3cccc(C(F)(F)F)c3)n2)cc1` (stereo not drawn), the AC35 is reported as 6.15 µM. `CCCCNC1=CC(=O)C(=O)c2ccccc21` showed an AC35 of 7.32 µM. Molecule `C[C@H](CO)N1C[C@H](C)[C@H](CN(C)Cc2ccc(C(=O)Nc3ccccc3N)cc2)Oc2ccc(N(C)C)cc2CC1=O` has an AC35 of 0.19 µM. `C[C@@H]1CN([C@@H](C)CO)C(=O)c2cccc(NS(=O)(=O)c3ccccc3)c2O[C@@H]1CN(C)Cc1ccc(C(=O)Nc2ccccc2N)cc1` showed an AC35 of 2.11 µM. `C[C@@H]1CN([C@@H](C)CO)C(=O)c2cccc(N(C)C)c2O[C@@H]1CN(C)Cc1ccc(C(=O)Nc2ccccc2N)cc1` gave an AC35 of 4.26 µM. `N#CC(=C1C=CC(=NO)C(Cl)=C1)c1ccccc1` was tested, and the AC35 was 2.66 µM. In the case of `COc1ccccc1NC(=O)N1CCCCN2[C@H](CO)[C@H](c3ccc(-c4cccc(C)c4)cc3)[C@H]2C1`, the AC35 is reported as 12.5 µM. In the case of `C=C1C(=O)OC2C1CCC(C)C1(O)C=CC(=O)C21C` (stereo not drawn), the AC35 is reported as 16.4 µM. `COc1ccc(-c2cc(CNc3nc(NC(C)C)nc4cc(-c5ccccc5)sc34)on2)cc1` was tested, and the AC35 was 11 µM. `COc1ccc(OC)c(Cc2cnc3nc(N)nc(N)c3c2C)c1` showed an AC35 of 0.0574 µM. Work on `COc1cc2c(cc1NC(=O)CN(C)Cc1ccc(OC)c(OC)c1)oc1ccccc12` yielded an AC35 of 15.6 µM. With `CC1(C)N=C(N)N=C(N)N1c1ccc(OCCCOc2ccccc2)c(Cl)c1` the AC35 was 9.77 µM. With `CCCCCCCN(c1ccccc1)[C@@H]1C[C@H]2CCCC(=O)N3CC[C@@H](C1)[C@@H]23` the AC35 was 17.3 µM. In the case of `CCOC(=O)[C@]12Cc3ccc(C)cc3[C@H]1N(C1CCCCC1)C(=O)c1ccccc12`, the AC35 is reported as 3.95 µM.
